# According to patent EP0205308B1, “Scytophycins” (Moore, Richard Elliott, priority 1985, dated 1986):
# Marks after values point to notes of the source that are not given here.
# Columns and labels:
# [1] = system: Saccharomyces pastorianus X52; assay: In vitro agar-diffusion test; assay type: cell-based; design: key: T = trace
# Description: (§1) The activity of scytophycin compounds against pathogenic fungi in standard in vitro agar-diffusion tests, using ¼"(6mm) discs holding ~30 µL of test solution, is illustrated in Tables 6-12.
# Candida albicans X657 = assay: In vitro agar-diffusion test; assay type: cell-based; conditions: for inhibition of fungal pathogen: Candida albicans, general statement in words
# Description: as §1
# Neurospora crassa X846 = assay: In vitro agar-diffusion test; assay type: cell-based
# Description: as §1
# Pythium ultimum X751 = assay: In vitro agar-diffusion test; assay type: cell-based; conditions: for Zone of Inhibition Size: Table 6, level 1 mg/mL
# Description: as §1
# Rhizoctonia solani X767 = assay: In vitro agar-diffusion test; assay type: cell-based
# Description: as §1
# [2] = system: Sclerotina homoeocarpa X768; assay: In vitro agar-diffusion test; assay type: cell-based
# Description: as §1
# [3] = assay type: in vivo; conditions: mice, administered IP
# Description: At sublethal doses, the scytophycin compounds are antineoplastic agents. The minimum lethal dose of scytophycin B in mice, when administered IP, is about 650 µg/kg.
# [4] = system: KB human epidermoid carcinoma; assay: Cytotoxicity, minimum toxic dose (method of Furusawa and Cutting); assay type: cell-based; conditions: KB human epidermoid carcinoma cell line
# Description: (§2) The scytophycin compounds are potent cytotoxins. For example, the minimum toxic doses of scytophycins A and B against KB human epidermoid carcinoma and NIH/3T3 mouse fibroblast cell lines were determined to be 1 ng/mL and 0.65 ng/mL, respectively, using methods described by E. Furusawa and W. Cutting in Ann. New York Acad. Sci. 173, 669-679 (1970).
# NIH/3T3 mouse fibroblast = assay: as above; assay type: cell-based; conditions: NIH/3T3 mouse fibroblast cell line
# Description: as §2
# B16 Melanoma = assay: Survival of mice with intraperitoneally implanted tumor; assay type: in vivo, BDF1 Mice; conditions: for activity against intraperitoneally implanted tumor: B16 melanoma, result in words
# Description: (§3) Female hybrid BDF1 (DBA/2 x C57BL/6) mice were used for the evaluation of the scytophycins against the three tumors. The mice were first inoculated intraperitoneally with 10⁶ cells of P388 ascites leukemia (P388), 2 to 6 x 10⁵ cells of Lewis lung carcinoma (LLC) homogenate, or 0.3 mL of 20% homogenate of B16 tumor (B16) masses. Drug treatment was started the next day (day 1) and continued daily for 6-9 days.
# Lewis Lung Carcinoma = assay: as above; assay type: in vivo, BDF1 Mice; conditions: for % T/C / Mean Survival Time, Days Treated: LLC, 9 days of treatment; for activity against intraperitoneally implanted tumor: Lewis lung carcinoma, result in words
# Description: as §3
# [5] = system: P388 Lymphocytic Leukemia; assay: as above; assay type: in vivo, BDF1 Mice; conditions: for activity against intraperitoneally implanted tumor: P388 lymphocytic leukemia, result in words
# Description: as §3
# [6] = B16, 2 µg/Mouse, 8 days of treatment
# [7] = B16, 4 µg/Mouse, 8 days of treatment
# [8] = B16, 8 µg/Mouse, 8 days of treatment
# [9] = P388, 0.5 µg/Mouse, 8 days of treatment
# [10] = P388, 0.65 µg/Mouse, 8 days of treatment
# [11] = P388, 1 µg/Mouse, 8 days of treatment
# [12] = P388, 2 µg/Mouse, 8 days of treatment
# [13] = P388, 3.25 µg/Mouse, 6 days of treatment
# [14] = P388, 4 µg/Mouse, 8 days of treatment
substance,measurement,setting,value
Scytophycin D,Size of Zone of Inhibition (mm),"[1]; Table 8, 0.33 mg/mL",T^a
same,Size of Zone of Inhibition (mm),"[1]; Table 8, 1 mg/mL",12 mm
same,Size of Zone of Inhibition (mm),"Candida albicans X657; Table 8, 0.33 mg/mL",14 mm
same,Size of Zone of Inhibition (mm),"Candida albicans X657; Table 8, 1 mg/mL",19 mm
same,Size of Zone of Inhibition (mm),"Neurospora crassa X846; Table 8, 0.33 mg/mL",20 mm
same,Size of Zone of Inhibition (mm),"Neurospora crassa X846; Table 8, 1 mg/mL",25 mm
same,Size of Zone of Inhibition (mm),"Pythium ultimum X751; Table 11, 0.33 mg/mL",24 mm
same,Size of Zone of Inhibition (mm),"Pythium ultimum X751; Table 11, 1.0 mg/mL",27 mm
same,Size of Zone of Inhibition (mm),"Rhizoctonia solani X767; Table 11, 0.33 mg/mL",22 mm
same,Size of Zone of Inhibition (mm),"Rhizoctonia solani X767; Table 11, 1.0 mg/mL",30 mm
same,Size of Zone of Inhibition (mm),"[2]; Table 11, 0.33 mg/mL",20 mm
same,Size of Zone of Inhibition (mm),"[2]; Table 11, 1.0 mg/mL",26 mm
Scytophycin B,minimum lethal dose,[3],about 650 µg/kg
same,minimum toxic dose,[4],0.65 ng/mL
same,minimum toxic dose,NIH/3T3 mouse fibroblast,0.65 ng/mL
same,% T/C,B16 Melanoma; [6],102%
same,"Mean Survival Time, Days Treated",B16 Melanoma; [6],19.4 days
same,% T/C,B16 Melanoma; [7],104%
same,"Mean Survival Time, Days Treated",B16 Melanoma; [7],19.8 days
same,% T/C,B16 Melanoma; [8],63%
same,"Mean Survival Time, Days Treated",B16 Melanoma; [8],12.0 days
same,toxicity remark in % T/C column,B16 Melanoma; [8],toxic
same,activity against intraperitoneally implanted tumor,B16 Melanoma,did not exhibit activity
same,% T/C,Lewis Lung Carcinoma; 0.5 µg/Mouse,106%
same,"Mean Survival Time, Days Treated",Lewis Lung Carcinoma; 0.5 µg/Mouse,10.4 days
same,% T/C,Lewis Lung Carcinoma; 1 µg/Mouse,114%
same,"Mean Survival Time, Days Treated",Lewis Lung Carcinoma; 1 µg/Mouse,11.2 days
same,% T/C,Lewis Lung Carcinoma; 2 µg/Mouse,124%
same,"Mean Survival Time, Days Treated",Lewis Lung Carcinoma; 2 µg/Mouse,12.2 days
same,% T/C,Lewis Lung Carcinoma; 4 µg/Mouse,129%
same,"Mean Survival Time, Days Treated",Lewis Lung Carcinoma; 4 µg/Mouse,12.6 days
same,activity against intraperitoneally implanted tumor,Lewis Lung Carcinoma,moderate activity
same,% T/C,[5]; [9],100%
same,"Mean Survival Time, Days Treated",[5]; [9],9.4 days
same,% T/C,[5]; [10],125%
same,"Mean Survival Time, Days Treated",[5]; [10],10.0 days
same,% T/C,[5]; [11],113%
same,"Mean Survival Time, Days Treated",[5]; [11],10.6 days
same,% T/C,[5]; [12],130%
same,"Mean Survival Time, Days Treated",[5]; [12],12.2 days
same,% T/C,[5]; [13],136%
same,"Mean Survival Time, Days Treated",[5]; [13],11.4 days
same,% T/C,[5]; [14],128%
same,"Mean Survival Time, Days Treated",[5]; [14],12.0 days
same,activity against intraperitoneally implanted tumor,[5],moderate activity
same,Size of Zone of Inhibition (mm),"[1]; Table 7, 0.01 mg/mL",20 mm
same,Size of Zone of Inhibition (mm),"[1]; Table 7, 0.1 mg/mL",20 mm
same,Size of Zone of Inhibition (mm),"[1]; Table 7, 1 mg/mL",27 mm
same,Size of Zone of Inhibition (mm),"[1]; Table 8, 0.33 mg/mL",24 mm
same,Size of Zone of Inhibition (mm),"[1]; Table 8, 1 mg/mL",24 mm
same,inhibition of fungal pathogen,Candida albicans X657,inhibit
same,Size of Zone of Inhibition (mm),"Candida albicans X657; Table 7, 0.01 mg/mL",21 mm
same,Size of Zone of Inhibition (mm),"Candida albicans X657; Table 7, 0.1 mg/mL",22 mm
same,Size of Zone of Inhibition (mm),"Candida albicans X657; Table 7, 1 mg/mL",26 mm
same,Size of Zone of Inhibition (mm),"Candida albicans X657; Table 8, 0.33 mg/mL",25 mm
same,Size of Zone of Inhibition (mm),"Candida albicans X657; Table 8, 1 mg/mL",31 mm
same,Size of Zone of Inhibition (mm),"Neurospora crassa X846; Table 7, 0.01 mg/mL",30 mm
same,Size of Zone of Inhibition (mm),"Neurospora crassa X846; Table 7, 0.1 mg/mL",27 mm
same,Size of Zone of Inhibition (mm),"Neurospora crassa X846; Table 7, 1 mg/mL",32 mm
same,Size of Zone of Inhibition (mm),"Neurospora crassa X846; Table 8, 0.33 mg/mL",36 mm
same,Size of Zone of Inhibition (mm),"Neurospora crassa X846; Table 8, 1 mg/mL",36 mm
same,Zone of Inhibition Size,Pythium ultimum X751,37 mm
same,Size of Zone of Inhibition (mm),"Pythium ultimum X751; Table 10, 0.01 mg/mL",30 mm
same,Size of Zone of Inhibition (mm),"Pythium ultimum X751; Table 10, 0.1 mg/mL",30^a mm
same,Size of Zone of Inhibition (mm),"Pythium ultimum X751; Table 10, 1.0 mg/mL",30^a mm
same,Size of Zone of Inhibition (mm),"Pythium ultimum X751; Table 11, 0.33 mg/mL",30 mm
same,Size of Zone of Inhibition (mm),"Pythium ultimum X751; Table 11, 1.0 mg/mL",30 mm
same,Size of Zone of Inhibition (mm),"Rhizoctonia solani X767; Table 10, 0.01 mg/mL",30 mm
same,Size of Zone of Inhibition (mm),"Rhizoctonia solani X767; Table 10, 0.1 mg/mL",>30 mm
same,Size of Zone of Inhibition (mm),"Rhizoctonia solani X767; Table 10, 1.0 mg/mL",>30 mm
same,Size of Zone of Inhibition (mm),"Rhizoctonia solani X767; Table 11, 0.33 mg/mL",40 mm
same,Size of Zone of Inhibition (mm),"Rhizoctonia solani X767; Table 11, 1.0 mg/mL",46^a mm
same,Size of Zone of Inhibition (mm),"[2]; Table 10, 0.01 mg/mL",>30 mm
same,Size of Zone of Inhibition (mm),"[2]; Table 10, 0.1 mg/mL",>30 mm
same,Size of Zone of Inhibition (mm),"[2]; Table 10, 1.0 mg/mL",>30 mm
same,Size of Zone of Inhibition (mm),"[2]; Table 11, 0.33 mg/mL",40 mm
same,Size of Zone of Inhibition (mm),"[2]; Table 11, 1.0 mg/mL",44 mm
Scytophycin A,minimum toxic dose,[4],1 ng/mL
same,minimum toxic dose,NIH/3T3 mouse fibroblast,1 ng/mL
same,activity against intraperitoneally implanted tumor,B16 Melanoma,did not exhibit activity
same,activity against intraperitoneally implanted tumor,Lewis Lung Carcinoma,moderate activity
same,% T/C,[5]; [11],125%
same,"Mean Survival Time, Days Treated",[5]; [11],10.0 days
same,activity against intraperitoneally implanted tumor,[5],moderate activity
same,Size of Zone of Inhibition (mm),"[1]; Table 7, 0.01 mg/mL",T^a
same,Size of Zone of Inhibition (mm),"[1]; Table 7, 0.1 mg/mL",17 mm
same,Size of Zone of Inhibition (mm),"[1]; Table 7, 1 mg/mL",24 mm
same,inhibition of fungal pathogen,Candida albicans X657,inhibit
same,Size of Zone of Inhibition (mm),"Candida albicans X657; Table 7, 0.01 mg/mL",12 mm
same,Size of Zone of Inhibition (mm),"Candida albicans X657; Table 7, 0.1 mg/mL",19 mm
same,Size of Zone of Inhibition (mm),"Candida albicans X657; Table 7, 1 mg/mL",23 mm
same,Size of Zone of Inhibition (mm),"Neurospora crassa X846; Table 7, 0.01 mg/mL",18 mm
same,Size of Zone of Inhibition (mm),"Neurospora crassa X846; Table 7, 0.1 mg/mL",25 mm
same,Size of Zone of Inhibition (mm),"Neurospora crassa X846; Table 7, 1 mg/mL",30 mm
same,Zone of Inhibition Size,Pythium ultimum X751,37 mm
same,Size of Zone of Inhibition (mm),"Pythium ultimum X751; Table 10, 0.01 mg/mL",20 mm
same,Size of Zone of Inhibition (mm),"Pythium ultimum X751; Table 10, 0.1 mg/mL",>30 mm
same,Size of Zone of Inhibition (mm),"Pythium ultimum X751; Table 10, 1.0 mg/mL",>30 mm
same,Size of Zone of Inhibition (mm),"Rhizoctonia solani X767; Table 10, 0.01 mg/mL",13 mm
same,Size of Zone of Inhibition (mm),"Rhizoctonia solani X767; Table 10, 0.1 mg/mL",23 mm
same,Size of Zone of Inhibition (mm),"Rhizoctonia solani X767; Table 10, 1.0 mg/mL",30 mm
same,Size of Zone of Inhibition (mm),"[2]; Table 10, 0.01 mg/mL",20 mm
same,Size of Zone of Inhibition (mm),"[2]; Table 10, 0.1 mg/mL",30 mm
same,Size of Zone of Inhibition (mm),"[2]; Table 10, 1.0 mg/mL",>30 mm
